Consider 19 compounds from PMC9697873, “Construction and Evaluation of a Novel Organic Anion Transporter 1/3 CRISPR/Cas9 Double-Knockout Rat Model” (Pharmaceutics, 2022).

Counter-ions that a name gives are not always drawn. Like-named read-outs stand apart in the source and are kept apart here.

The nature of data set [1]: UTs concentration and renal uptake ratio detection in WT and KO rats. It counts as in vivo, rat. The note with it: for plasma concentration of endogenous UT, KO compared with WT rats / renal uptake ratio of endogenous UT, KO compared with WT rats: 4W and/or 7W rats, n = 7; for urine concentration of endogenous UT, KO compared with WT rats: 12-h urine, 4W and 7W rats. On the procedure: We collected blood, 12-h urine and kidney tissue samples of 4W and 7W WT and KO rats. The concentrations of UTs were measured by the liquid chromatography-tandem mass spectrometry (LC-MS/MS), which consisted of an Agilent 1260 liquid chromatography and a 6460 triple-quadrupole mass spectrometer operated in the electrospray ionization mode (Agilent Technologies, Santa Clara, CA, USA). Chromatographic separations were performed on an Agilent ZORBAX RR StableBond C18 analytical guard column (4.6 mm × 100 mm, 3.5 µm, Agilent Technologies, Santa Clara, CA, USA) at 30 °C. The MS parameters are shown in Supporting Information Table S1. […] The internal standard used in the positive ion mode was d3-creatinine, and in the negative ion mode was d5-hippuric acid.

For data set [2] the following is noted: furosemide ref 19; PAH ref 17, 52; cited from earlier work.
Data set [3] in a line: Urinary excretion after intravenous drug cocktail in WT and KO rats. The following applies: KO vs WT rats, i.v. cocktail, urine to 12 h. The data set is classed as in vivo, rat.
Method: The blood samples were centrifuged at 8000× g for 10 min and the supernatant was stored at −80 °C for detection.
Where [4] appears, read: Slc22a6/Slc22a8-/- rats, i.v. cocktail, mean ± S.D., n = 5.
Setting [5] is: WT rats, i.v. cocktail, mean ± S.D., n = 5.

For `Cn1cnc2c(ncn2[C@@H]2O[C@H](CO)[C@@H](O)[C@H]2O)c1=O` [1-methyl-inosine], in data set [1], the “plasma concentration of endogenous UT, KO compared with WT rats” value is “significantly increased”; the “renal uptake ratio of endogenous UT, KO compared with WT rats” value (shortened to “renal uptake ratio of endogenous UT, KO”) is “obviously decreased”; the “urine concentration of endogenous UT, KO compared with WT rats” value is “clearly decreased”.

On to `OC[C@H]1O[C@@H](Oc2c[nH]c3ccccc23)[C@H](O)[C@@H](O)[C@@H]1O` [3-indolyl-β-D-glucopyranoside], for which, in data set [1], the “plasma concentration of endogenous UT, KO compared with WT rats” value is on record as “significantly increased” and the “renal uptake ratio of endogenous UT, KO” value was “obviously decreased”.

`O=S(=O)([O-])Oc1c[nH]c2ccccc12.[K+]` [3-indoxyl sulfate potassium salt]: in data set [1], the “plasma concentration of endogenous UT, KO compared with WT rats” value is reported as “significantly increased” and the “renal uptake ratio of endogenous UT, KO” value is recorded as “obviously decreased”.

For the compound `CCc1ccc(OS(=O)(=O)[O-])cc1.[K+]` [4-ethylphenyl sulfate], in data set [1], the “plasma concentration of endogenous UT, KO compared with WT rats” value is on record as “significantly increased”; the “renal uptake ratio of endogenous UT, KO” value is “obviously decreased”; the “urine concentration of endogenous UT, KO compared with WT rats” value was “increased”.

Turning to `Nc1ccccc1C(=O)C[C@@H](N)C(=O)O` [D-kynurenine], in data set [1], the “plasma concentration of endogenous UT, KO compared with WT rats” value is recorded as “significantly increased” and the “renal uptake ratio of endogenous UT, KO” value was “obviously decreased”.

As for `CN(C)c1nc2c(ncn2[C@@H]2O[C@H](CO)[C@@H](O)[C@H]2O)c(=O)[nH]1` [N2,N2-dimethylguanosine], in data set [1], the “urine concentration of endogenous UT, KO compared with WT rats” value is “clearly decreased”.

As to `N[C@@H](CCCCNCC(=O)O)C(=O)O` [N6-(carboxymethyl)-l-lysine], in data set [1], the “plasma concentration of endogenous UT, KO compared with WT rats” value is “significantly increased” and the “renal uptake ratio of endogenous UT, KO” value is listed as “obviously decreased”.

In the case of `O=C(O)CNC(=O)C=Cc1ccccc1` [N-(cinnamoyl)glycine], in data set [1], the “plasma concentration of endogenous UT, KO compared with WT rats” value was “significantly lower” and the “renal uptake ratio of endogenous UT, KO” value is given as “much higher”.

Take `CC(=O)N[C@@H](CCCN=C(N)N)C(=O)O` [N-acetyl-L-arginine]: in data set [1], the “plasma concentration of endogenous UT, KO compared with WT rats” value is reported as “significantly increased” and the “renal uptake ratio of endogenous UT, KO” value was “obviously decreased”.

Consider `CC(=O)Nc1ccn([C@@H]2O[C@H](CO)[C@@H](O)[C@H]2O)c(=O)n1` [N-acetylcytidine], for which, in data set [1], the “plasma concentration of endogenous UT, KO compared with WT rats” value is on record as “significantly increased” and the “renal uptake ratio of endogenous UT, KO” value was “obviously decreased”.

As for `Nc1ccc(C(=O)NCC(=O)O)cc1` [PAH, p-aminohippuric acid], the “plasma protein binding rate” value in data set [2] was “low”.

Take `CN1CC(=O)NC1=N` [creatinine]: the “plasma concentration of endogenous UT, KO compared with WT rats” value in data set [1] is listed as “not significantly increased”.

For the compound `O=C(O)CNC(=O)c1ccccc1` [hippuric acid], in data set [1], the “plasma concentration of endogenous UT, KO compared with WT rats” value is on record as “significantly increased” and the “renal uptake ratio of endogenous UT, KO” value is given as “obviously decreased”.

As for `O=C(O)c1cc(=O)[nH]c(=O)[nH]1` [orotic acid], in data set [1], the “plasma concentration of endogenous UT, KO compared with WT rats” value is reported as “significantly increased” and the “renal uptake ratio of endogenous UT, KO” value is “obviously decreased”.

Consider `Cc1ccc(O[C@@H]2O[C@H](C(=O)O)[C@@H](O)[C@H](O)[C@H]2O)cc1` [p-cresol glucuronide], for which, in data set [1], the “plasma concentration of endogenous UT, KO compared with WT rats” value is “significantly lower” and the “renal uptake ratio of endogenous UT, KO” value is recorded as “much higher”.

For `Cc1ccc(OS(=O)(=O)O)cc1` [p-cresol sulfate], in data set [1], the “plasma concentration of endogenous UT, KO compared with WT rats” value is reported as “significantly increased” and the “renal uptake ratio of endogenous UT, KO” value is given as “obviously decreased”.

On to `O=C(O)[C@H]1O[C@@H](Oc2ccccc2)[C@H](O)[C@@H](O)[C@@H]1O` [phenyl-β-D-glucuronide], for which, in data set [1], the “plasma concentration of endogenous UT, KO compared with WT rats” value is “significantly lower” and the “renal uptake ratio of endogenous UT, KO” value is “much higher”.

For the compound `O=c1[nH]c(=O)c2[nH]c(=O)[nH]c2[nH]1` [uric acid], in data set [1], the “plasma concentration of endogenous UT, KO compared with WT rats” value is “significantly increased” and the “renal uptake ratio of endogenous UT, KO” value was “obviously decreased”.

With inulin, in data set [3], the “urinary excretion / urine concentration, KO compared with WT rats” value is reported as “significantly decreased”. Besides, the “plasma concentration, KO compared with WT rats” value (KO vs WT rats, i.v. cocktail) was “much higher”. Besides, the “AUC(0–12)” value (Slc22a6/Slc22a8-/- rats, i.v. cocktail (PAH 5 mg/kg, metformin 5 mg/kg, inulin 100 mg/kg), mean ± S.D., n = 5) is given as 14,208.11 ± 1433.67 ng/mL·min. Under setting [4], the “AUC(0–∞)” value is 16,434.89 ± 1696.15 ng/mL·min; the CL/F is on record as 6137.27 ± 639.31; the Cmax (in general, the peak of the concentration-time curve) worked out at 376.40 ± 36.13 ng/mL; the “MRT(0–12)” value turned out to be 35.34 ± 4.08 min. For the same compound, under setting [4], the “MRT(0–∞)” value stood at 37.99 ± 4.20 min, the V1/F is 185,957.58 ± 15,232.62 L/kg and the t1/2α was 5.23 ± 2.51 min. Moreover, under setting [5], the CL/F turned out to be 7427.26 ± 724.03, the Cmax is reported as 324.47 ± 33.41 ng/mL, the “MRT(0–12)” value is reported as 28.71 ± 5.54 min and the “MRT(0–∞)” value is 34.03 ± 8.70 min. Under setting [5], the V1/F is 241,341.96 ± 36672.44 L/kg and the t1/2α is reported as 14.75 ± 4.72 min.
